Patent US11225505B2, “Antimicrobial polymyxin derivative compounds” (MONASH UNIVERSITY, priority 2015, dated 2022)
In brackets after ≈: the same amount, converted by molar mass. Where a SMILES comes first, the peptide text is derived from it. Bridges are numbered along the chain shown (N, C = ends). [ ]: non-standard residue; d: D form. The star is where a group is joined. Pyrrole2carbonyl(4,5-Br2) = O=C(c1cc(Br)c(Br)[nH]1)*; X18 = O=C(c1cc(-c2ccccc2)[nH]n1)*; X47 = O=C(c1cc2cc(Cl)ccc2[nH]1)*; X9 = O=C(c1ccnc(C(F)(F)F)c1)*; X56 = Cn1cc(C(=O)*)c2ccccc21; X2 = O=C(c1cc(Cl)cc(Cl)n1)*; X34 = O=C(c1cc(Br)c(Br)o1)*; X12 = CCc1ccc(C(=O)*)nc1; Dab = NCC[C@H](N)C(=O)O; Abu = CC[C@H](N)C(=O)O; Dap = NC[C@H](N)C(=O)O

Columns and labels:
Type in all cases: cell-based
[1] = tested on: Acinetobacter baumannii ATCC 17978; conditions: ATCC 17978
How it was run: (§1)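 In cation-adjusted Mueller-Hinton broth, each lipopeptide (TFA salt) was titrated against the bacteria by microdilution and the minimum inhibitory concentration recorded per CLSI M100-S24; polymyxin B sulphate ran in parallel.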

[2] = tested on: Acinetobacter baumannii FADDI-AB034; conditions: FADDI-AB034
How it was run: as §1

[3] = tested on: Enterobacter cloacae FADDI-EC001; conditions: FADDI-EC001
How it was run: (§2)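 Susceptibility of polymyxin-susceptible Gram-negative strains, including multidrug-resistant clinical isolates PA022 and AB034, was tested by broth microdilution. Cation-adjusted Mueller-Hinton broth and the CLSI M100-S24 method were used.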

[4] = tested on: Enterobacter cloacae FADDI-EC003; conditions: FADDI-EC003
How it was run: as §1

[5] = tested on: Enterobacter cloacae FADDI-EC006; conditions: FADDI-EC006
How it was run: as §1

[6] = tested on: Klebsiella pneumoniae FADDI-KP022; conditions: FADDI-KP022
How it was run: as §1

[7] = tested on: Klebsiella pneumoniae FADDI-KP032; conditions: FADDI-KP032
How it was run: as §1

[8] = tested on: Klebsiella pneumoniae Kp BM1; conditions: Kp BM1
How it was run: as §2

[9] = tested on: Pseudomonas aeruginosa ATCC 27853; conditions: ATCC 27853
How it was run: as §1

[10] = tested on: Pseudomonas aeruginosa FADDI-PA01; conditions: FADDI-
How it was run: as §1

[11] = tested on: Pseudomonas aeruginosa FADDI-PA022; conditions: FADDI-PA022
How it was run: as §1

[12] = tested on: Pseudomonas aeruginosa FADDI-PA038; conditions: FADDI-PA038
How it was run: as §1

[13] = tested on: Acinetobacter baumannii FADDI-AB030; experiment: microbe, parasite or virus in culture; conditions: FADDI-AB030
How it was run: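 Lipopeptide TFA salts tested against the multidrug-resistant clinical isolate by CLSI (M100-S24) broth microdilution in cation-adjusted Mueller-Hinton broth, with polymyxin B sulphate as control; MIC read.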

Row | SMILES | Minimum inhibitory concentration [1] [µg/mL] | Minimum inhibitory concentration [2] [µg/mL] | Minimum inhibitory concentration [3] [µg/mL] | Minimum inhibitory concentration [4] [µg/mL] | Minimum inhibitory concentration [5] [µg/mL] | Minimum inhibitory concentration [6] [µg/mL] | Minimum inhibitory concentration [7] [µg/mL] | Minimum inhibitory concentration [8] [µg/mL] | Minimum inhibitory concentration [9] [µg/mL] | Minimum inhibitory concentration [10] [µg/mL] | Minimum inhibitory concentration [11] [µg/mL] | Minimum inhibitory concentration [12] [µg/mL] | Minimum inhibitory concentration [13] [µg/mL]
1 | CC[C@@H]1NC(=O)[C@@H](CC(C)C)NC(=O)[C@H](CCN)NC(=O)[C@@H](NC(=O)[C@H](CN)NC(=O)[C@@H](NC(=O)[C@H](CCN)NC(=O)c2cc(Cl)cc(Cl)n2)[C@@H](C)O)CCNC(=O)[C@H]([C@@H](C)O)NC(=O)[C@H](CCN)NC(=O)[C@H](CCN)NC1=O [Compound 18] (X2-[Dab]T[Dap][Dab][Dab][dL][Abu][Dab][Dab]T; lactam 4-C) | 1 (≈ 0.861 µM) | 0.25 (≈ 0.215 µM) | <0.125 | 0.5 (≈ 0.431 µM) | 0.25 (≈ 0.215 µM) | <0.125 | 0.25 (≈ 0.215 µM) | 0.25 (≈ 0.215 µM) | 0.25 (≈ 0.215 µM) | 0.25 (≈ 0.215 µM) | 0.5 (≈ 0.431 µM) | 1 (≈ 0.861 µM) | 0.5 (≈ 0.431 µM)
2 | CCc1ccc(C(=O)N[C@@H](CCN)C(=O)N[C@H](C(=O)N[C@@H](CN)C(=O)N[C@H]2CCNC(=O)[C@H]([C@@H](C)O)NC(=O)[C@H](CCN)NC(=O)[C@H](CCN)NC(=O)[C@H](CC)NC(=O)[C@@H](CC(C)C)NC(=O)[C@H](CCN)NC2=O)[C@@H](C)O)nc1 [Compound 42] (X12-[Dab]T[Dap][Dab][Dab][dL][Abu][Dab][Dab]T; lactam 4-C) | 1 (≈ 0.893 µM) | 0.5 (≈ 0.446 µM) | <0.125 | <0.125 | <0.125 | <0.125 | <0.125 | 0.25 (≈ 0.223 µM) | <0.125 | <0.125 | <0.125 | 0.25 (≈ 0.223 µM) | <0.125
3 | CC[C@@H]1NC(=O)[C@@H](CC(C)C)NC(=O)[C@H](CCN)NC(=O)[C@@H](NC(=O)[C@H](CN)NC(=O)[C@@H](NC(=O)[C@H](CCN)NC(=O)c2cc(Br)c(Br)[nH]2)[C@@H](C)O)CCNC(=O)[C@H]([C@@H](C)O)NC(=O)[C@H](CCN)NC(=O)[C@H](CCN)NC1=O [Compound 77] ({Pyrrole2carbonyl(4,5-Br2)}-[Dab]T[Dap][Dab][Dab][dL][Abu][Dab][Dab]T; lactam 4-C) | 0.5 (≈ 0.404 µM) | 0.25 (≈ 0.202 µM) | 0.25 (≈ 0.202 µM) | 0.25 (≈ 0.202 µM) | <0.125 | <0.125 | 0.25 (≈ 0.202 µM) | <0.125 | 0.25 (≈ 0.202 µM) | 0.25 (≈ 0.202 µM) | 0.5 (≈ 0.404 µM) | 1 (≈ 0.808 µM) | 0.25 (≈ 0.202 µM)
4 | CC[C@@H]1NC(=O)[C@@H](CC(C)C)NC(=O)[C@H](CCN)NC(=O)[C@@H](NC(=O)[C@H](CN)NC(=O)[C@@H](NC(=O)[C@H](CCN)NC(=O)c2cc(-c3ccccc3)[nH]n2)[C@@H](C)O)CCNC(=O)[C@H]([C@@H](C)O)NC(=O)[C@H](CCN)NC(=O)[C@H](CCN)NC1=O [Compound 84] (X18-[Dab]T[Dap][Dab][Dab][dL][Abu][Dab][Dab]T; lactam 4-C) | 0.5 (≈ 0.432 µM) | 0.5 (≈ 0.432 µM) | 0.25 (≈ 0.216 µM) | <0.125 | <0.125 | <0.125 | 0.25 (≈ 0.216 µM) | <0.125 | 0.25 (≈ 0.216 µM) | 0.25 (≈ 0.216 µM) | 0.25 (≈ 0.216 µM) | 0.5 (≈ 0.432 µM) | 0.5 (≈ 0.432 µM)
5 | CC[C@@H]1NC(=O)[C@@H](CC(C)C)NC(=O)[C@H](CCN)NC(=O)[C@@H](NC(=O)[C@H](CN)NC(=O)[C@@H](NC(=O)[C@H](CCN)NC(=O)c2cc3cc(Cl)ccc3[nH]2)[C@@H](C)O)CCNC(=O)[C@H]([C@@H](C)O)NC(=O)[C@H](CCN)NC(=O)[C@H](CCN)NC1=O [Compound 59] (X47-[Dab]T[Dap][Dab][Dab][dL][Abu][Dab][Dab]T; lactam 4-C) | 0.5 (≈ 0.429 µM) | <0.125 | 0.25 (≈ 0.215 µM) | 0.25 (≈ 0.215 µM) | 0.5 (≈ 0.429 µM) | <0.125 | 0.25 (≈ 0.215 µM) | 0.5 (≈ 0.429 µM) | 0.5 (≈ 0.429 µM) | 0.25 (≈ 0.215 µM) | 0.5 (≈ 0.429 µM) | 1 (≈ 0.859 µM) | 0.5 (≈ 0.429 µM)
6 | CC[C@@H]1NC(=O)[C@@H](CC(C)C)NC(=O)[C@H](CCN)NC(=O)[C@@H](NC(=O)[C@H](CN)NC(=O)[C@@H](NC(=O)[C@H](CCN)NC(=O)c2cn(C)c3ccccc23)[C@@H](C)O)CCNC(=O)[C@H]([C@@H](C)O)NC(=O)[C@H](CCN)NC(=O)[C@H](CCN)NC1=O [Compound 63] (X56-[Dab]T[Dap][Dab][Dab][dL][Abu][Dab][Dab]T; lactam 4-C) | 1 (≈ 0.874 µM) | 1 (≈ 0.874 µM) | <0.125 | 2 (≈ 1.75 µM) | 2 (≈ 1.75 µM) | <0.125 | <0.125 | <0.125 | 0.5 (≈ 0.437 µM) | <0.125 | 0.25 (≈ 0.218 µM) | 0.5 (≈ 0.437 µM) | 0.5 (≈ 0.437 µM)
7 | CC(C)C[C@H]1NC(=O)[C@H](CCN)NC(=O)[C@@H](NC(=O)[C@H](CN)NC(=O)[C@@H](NC(=O)[C@H](CCN)NC(=O)c2ccnc(C(F)(F)F)c2)[C@@H](C)O)CCNC(=O)[C@H]([C@@H](C)O)NC(=O)[C@H](CCN)NC(=O)[C@H](CCN)NC(=O)[C@H]([C@@H](C)O)NC1=O [Compound 32] (X9-[Dab]T[Dap][Dab][Dab][dL]T[Dab][Dab]T; lactam 4-C; N-terminus assumed) | 4 (≈ 3.4 µM) | 2 (≈ 1.7 µM) | 1 (≈ 0.85 µM) | 0.5 (≈ 0.425 µM) | 1 (≈ 0.85 µM) | <0.125 | 0.25 (≈ 0.213 µM) | 1 (≈ 0.85 µM) | 0.5 (≈ 0.425 µM) | 1 (≈ 0.85 µM) | 0.5 (≈ 0.425 µM) | 0.5 (≈ 0.425 µM) | 1 (≈ 0.85 µM)
8 | CC[C@@H]1NC(=O)[C@@H](CC(C)C)NC(=O)[C@H](CCN)NC(=O)[C@@H](NC(=O)[C@H](CN)NC(=O)[C@@H](NC(=O)[C@H](CCN)NC(=O)c2cc(Br)c(Br)o2)[C@@H](C)O)CCNC(=O)[C@H]([C@@H](C)O)NC(=O)[C@H](CCN)NC(=O)[C@H](CCN)NC1=O [Compound 79] (X34-[Dab]T[Dap][Dab][Dab][dL][Abu][Dab][Dab]T; lactam 4-C) | 0.5 (≈ 0.404 µM) | 0.5 (≈ 0.404 µM) | <0.125 | <0.125 | 0.25 (≈ 0.202 µM) | <0.125 | <0.125 | 0.25 (≈ 0.202 µM) | 0.25 (≈ 0.202 µM) | 1 (≈ 0.807 µM) | 0.25 (≈ 0.202 µM) | 0.5 (≈ 0.404 µM) | 0.25 (≈ 0.202 µM)
